Publication PMC5374710, “Discovery of the first dual GSK3β inhibitor/Nrf2 inducer. A new multitarget therapeutic strategy for Alzheimer’s disease” (Scientific Reports, 2017)
Several values for one entry are separate records, joined by “and”; a condition that tells them apart may be missing. Identical values can stand only once.

Assays:
SH-SY5Y cells = assay: Cytotoxicity in SH-SY5Y neuroblastoma cell line (MTT); conditions: 24 h
Protocol: (§4) Viability was measured as MTT reduction in presence of increasing concentrations of derivatives. Values are expressed as LD50 calculated from dose-response curves of four different concentrations.
(§5) Cells were cultured in 48-well (SH-SY5Y, 1x10^5 cells per well) or 96-well plates (HepG2, 1x10^5 cells per well) for 24 h. […] Control cells were incubated with the same concentration of DMSO (0.1 % final concentration) without any drug.

primary rat glial cells [1] = assay: Nitrite production in LPS-stimulated primary glial cultures (Griess); format: cell-based; conditions: Glial cell, 24 h pre-incubation, 18 h co-incubation with LPS 1 μg/mL, read-out: IC50 nitrite reduction
Excerpt: (§1) Therefore, we envisaged the study of compounds 5a–t as potential anti-inflammatory agents. We used primary rat glial cells treated with lipopolysaccharide (LPS) to induce the production of nitrites and ROS as a model of glial activation. Nitrite production is directly proportional to the expression of the iNOS, that is over-expressed when LPS activates glial cells. ROS production is proportional to NOX activation after stimulation with LPS. Results are summarized in Table 2 as IC50s of nitrite production reduction and ROS production reduction. We have included sulforaphane as control in all experiments (see the Supporting Information).
Glial cells were pre-incubated with increasing concentrations of compounds for 24 hours. Then, treatments were removed and cells were incubated with LPS (1 μg/mL) alone or in presence of each compound at the desired concentration. Nitrite production was assessed 18 hours later by modified Griess assay. Briefly, samples (150 μl) were mixed with dapsone (75 μl) and NEDA (75 μl), and the mixture was incubated at room temperature for 5 min. Light absorption was measured at 550 nm in a microplate reader (Labtech, Offenburg, Germany). All data were normalized to basal nitrite production, considering this value as 100% of nitrite production. IC50 values were calculated from dose-response curves represented as percentage of nitrite production reduction induced by the different concentrations of each compound.
(§2) Mixed glial cultures were obtained from cerebral cortex of 2-5 day-old Sprague-Dawley rats. After removal of blood vessels and meninges, the forebrains were dissociated in DMEM/F12 medium. After mechanical dissociation, cells were plated (3x10^5 cells/ml) in DMEM/F12 medium with 20% fetal bovine serum (FBS) and 1 % penicillin/streptomycin (10,000 units), at 37 °C and in a 5 % CO2-supplemented air atmosphere. After 5 days, medium was substituted by DMEM/F12 medium with 10 % FBS. Cells were cultured for 7-10 days before treatment.
Primary rat glial cells were treated with compounds 5a-t at increasing concentrations (3, 10, 30 and 60 µM) during 24 h. Thereafter, treatments were removed and glial cells were co-incubated with increasing concentrations of each compound and LPS (1 µg/mL) for 18 h more. At the end of this period, supernatant was collected and the presence of nitrites was analyzed by the Griess method with modifications.^20 Each plate included non-treated cells as basal nitrite production, sulforaphane (SFN, 10 µM) as positive control. Briefly, samples (150 µl) were mixed with DAPSONE (75 µl) and NEDA (75 µl), and the mixture was incubated at room temperature for 5 min. Light absorption was measured at 550 nm in a microplate reader (Labtech, Offenburg, Germany). All data were normalized to basal nitrite production, considering this value as 100% of nitrite production. EC50 values were calculated from dose-response curves represented as percentage of nitrite production reduction induced by the different concentrations of each compound. Concentration response curves were fitted by non-linear regression analysis of individual concentration-response curves using GraphPad Prism software (San Diego, CA, USA). EC50 values are expressed as mean ± SEM of four different experiments in triplicate.

GSK3β = biological target: T1, GSK3β (Homo sapiens, UniProt P49841); assay: GSK3β inhibition, luminescence Kinase-Glo assay; format: biochemical; conditions: for IC50: four concentrations 0.1, 1, 10, 30 μM, ATP 1 μM, 1 h; for Ki: calculated from IC50 by Cheng-Prusoff equation, Km ATP 2.345 µM, read-out: Ki (apparent equilibrium dissociation constant)
T1 construct: purchased Promega V1991
Protocol: GSK3β inhibitory activity was evaluated using the method developed by Baki[66], with modifications. Compounds were dissolved in assay buffer, containing 40 mM Tris (pH 7.5), 20 mM MgCl2, 0.1 mg/ml BSA (bovine serum albumin) and 50 μM dithiothreitol (DTT) at the desired concentrations. Firstly, 10 μl of enzyme (10 ng) and 10 μl of each compound were mixed for 30 min. Then, 20 μl of a mixture of ATP (1 μM) and GSK3β peptidic substrate were added to each well. The mixture was incubated for 60 min at 30 °C. Thereafter, the remaining ATP concentration was measured with the Kinase-Glo system following instructions from the supplier. Luminescence was measured in an Orion II microplate luminometer (Berthold, Germany) as relative light units (RLU). […] IC50 values were calculated by non-linear regression analysis of individual concentration-response curves using GraphPad Prism 5.0 software (San Diego, CA, USA).
The ability of the compounds to inhibit GSK3β was evaluated using the method developed by Baki^9 with some modifications. The tested compounds were dissolved in assay buffer, containing 40 mM Tris (pH 7.5), 20 mM MgCl2, 0.1 mg/ml BSA (bovine serum albumin) and 50 µM dithiothreitol (DTT), to achieve final reaction concentrations of 0.1, 1, 10 and 30 µM. […] The GSK3β inhibition assay was performed in white 96-well plates, in duplicates. Firstly, 10 µl of enzyme (10 ng) were added to each well, followed by 10 µl of the compounds at the desired concentration. After 30 minutes, 20 µl of a mixture of ATP and GSK3β peptidic substrate were added to each well, achieving a final concentration of 1 µM of ATP and 25 of µM peptidic substrate. The mixture was incubated at 30 °C for 60 minutes. Once the reaction was finished, the remaining ATP concentration was measured by adding 40 µl/well of Kinase-Glo reagent. The luminescence was measured in an Orion II microplate luminometer (Berthold, Germany) as relative light units (RLU). The luminescence recorded is proportional to the amount of ATP present in each well.
Apparent Ki for each compound were calculated from GSK3β Km value for ATP, applying the Cheng-Prusoff equation^10,11 in its simplified form: Ki = IC50/(1+([S]/Km)), in which S refers to the ATP concentration and Km is the Michaelis constant of the substrate for GSK3β.

HepG2 cells = assay: Hepatotoxicity in HepG2 cell line (MTT); conditions: 24 h
Protocol: Thus, it is relevant to study the potential neurotoxicity and hepatotoxicity of the novel dual GSK3β inhibitors-Nrf2 inducers 5a–t.
as §4
HepG2 cells were cultured according to supplier indications in EMEM supplemented with 10 % heat-inactivated FBS, 100 µg/mL streptomycin and 100 units/mL penicillin. Cells were maintained at 37 °C in humidified atmosphere of 95 % air and 5 % CO2. For experimental procedures, cells were cultured in 96-well plates at density of 1x10^5 cells/well. Treatments were performed in 1% FBS medium unless other concentration was specified. Cells were used from 4 up to 13 passages.
as §5

primary rat glial cells [2] = assay: ROS production in LPS-stimulated primary glial cultures (H2DCFDA); format: cell-based; conditions: Glial cell, 24 h pre-incubation, 18 h co-incubation with LPS, 3 h with fluorescent dye, read-out: IC50 ROS reduction
Excerpt: as §1
Besides the increase in nitrite production, it is well known that LPS stimulation of microglia also induces the activation of NOX, which induces superoxide free radical production. In fact, this mechanism is synergistic with the expression of iNOS and the production of nitrites. In this respect, there is a body of evidence showing that NOX activation is a major contributor to ROS oxidative stress and neuronal death in AD[57][58]. […] In general, potency to reduce ROS production increased from ortho to para and meta as observed above.
(§3) Primary glial cells were cultured in bottom transparent 96-well black plates following standard protocol. Cells were pre-incubated with the corresponding compound at the selected concentrations, for 24 hours, and therafter, co-incubated with the corresponding compound and LPS (1 μM) during 18 h more. Then, treatments were removed and cells were loaded with the fluorescent probe 2′,7′-dichlorodihydrofluorescein diacetate (H2DCFDA) (10 μM) for 45 minutes in serum free glial culture medium. All experiments included cells treated with culture medium alone (basal). Cells were washed twice with culture medium and fluorescence intensity was recorded in a Fluostar Optima multiwall pate reader (BMG Labtech, Offenburg, Germany) at 485/520 nm as excitation and emission wavelengths respectively, each hour, during 3 hours period. Data were normalized with respect to basal conditions that were considered as 100%.
as §3, with “µM)” for “μM)”, “2',7'-dichlorodihydrofluorescein” for “2′,7′-dichlorodihydrofluorescein”
as §2

T1 sequence (P49841 whole entry): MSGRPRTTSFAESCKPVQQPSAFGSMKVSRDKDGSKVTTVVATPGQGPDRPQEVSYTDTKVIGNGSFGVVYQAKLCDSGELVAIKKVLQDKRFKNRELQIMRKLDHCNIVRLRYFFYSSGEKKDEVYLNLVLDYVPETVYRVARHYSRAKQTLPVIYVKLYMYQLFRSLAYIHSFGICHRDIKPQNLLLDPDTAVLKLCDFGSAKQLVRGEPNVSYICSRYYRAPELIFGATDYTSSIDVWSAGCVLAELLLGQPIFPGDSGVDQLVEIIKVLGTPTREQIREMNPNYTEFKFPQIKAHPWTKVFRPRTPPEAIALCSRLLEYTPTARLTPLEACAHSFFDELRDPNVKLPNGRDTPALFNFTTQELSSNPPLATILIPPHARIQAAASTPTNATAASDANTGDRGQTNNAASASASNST

Row | SMILES | SH-SY5Y LD50 (SH-SY5Y cells) | IC50 (primary rat glial cells [1]) | IC50 (GSK3β) | HepG2 LD50 (HepG2 cells) | IC50 (primary rat glial cells [2]) | Ki (GSK3β)
1 | Cc1[nH]nc2c1C(c1cccnc1)C(C#N)=C(N)O2 (stereo not drawn) [Compound 5s, 6-Amino-3-methyl-4-(pyridin-3-yl)-2,4-dihydropyrano[2,3-c]pyrazole-5-carbonitrile] | > 100 µM | 7.23 ± 1.1 µM | > 30 µM | > 100 µM | 15.2 ± 3.73 µM | –
2 | Cc1n[nH]c2c1C(c1ccc(Cl)cc1)C(C#N)=C(N)O2 (stereo not drawn) [Compound 5k, 6-Amino-4-(4-chlorophenyl)-3-methyl-2,4-dihydropyrano[2,3-c]pyrazole-5-carbonitrile] | > 100 µM | 26 ± 2.74 µM | 6.29 ± 2.6 µM | > 100 µM | > 60 µM | 4.41 µM
3 | Cc1cccc(C2C(C#N)=C(N)Oc3n[nH]c(C)c32)c1 (stereo not drawn) [Compound 5f, 6-Amino-3-methyl-4-(3-methylphenyl)-2,4-dihydropyrano[2,3-c]pyrazole-5-carbonitrile] | > 100 µM | 13.4 ± 1.44 µM | 21.4 ± 4.6 µM | > 100 µM | 32.6 ± 6.79 µM | 15 µM
4 | Cc1n[nH]c2c1C(c1ccccc1Cl)C(C#N)=C(N)O2 (stereo not drawn) [Compound 5i, 6-Amino-4-(2-chlorophenyl)-3-methyl-2,4-dihydropyrano[2,3-c]pyrazole-5-carbonitrile] | > 100 µM | > 60 µM | – | > 100 µM | > 60 µM | –
5 | COc1ccccc1C1C(C#N)=C(N)Oc2n[nH]c(C)c21 (stereo not drawn) [Compound 5b, 6-Amino-4-(2-methoxyphenyl)-3-methyl-2,4-dihydropyrano[2,3-c]pyrazole-5-carbonitrile] | > 100 µM | 43.6 ± 6.45 µM | 16.4 ± 1.8 µM | > 100 µM | > 60 µM | 11.5 µM
6 | Cc1ccc(C2C(C#N)=C(N)Oc3[nH]nc(C)c32)cc1 (stereo not drawn) [Compound 5g, 6-Amino-3-methyl-4-(4-methylphenyl)-2,4-dihydropyrano[2,3-c]pyrazole-5-carbonitrile] | > 100 µM | 22.3 ± 3.82 µM | 17.5 ± 1.9 µM | > 100 µM | 45.1 ± 5.33 µM | 12.3 µM
7 | Cc1[nH]nc2c1C(c1cccc(Cl)c1)C(C#N)=C(N)O2 (stereo not drawn) [Compound 5j, 6-Amino-4-(3-chlorophenyl)-3-methyl-2,4-dihydropyrano[2,3-c]pyrazole-5-carbonitrile] | > 100 µM | 5.11 ± 0.65 µM | 20.5 ± 8 µM | > 100 µM | 24 ± 2.58 µM | 14.4 µM
8 | Cc1[nH]nc2c1C(c1ccccc1)C(C#N)=C(N)O2 (stereo not drawn) [Compound 5a, 6-Amino-3-methyl-4-phenyl-2,4-dihydropyrano[2,3-c]pyrazole-5-carbonitrile] | > 100 µM | > 60 µM | > 30 µM | > 100 µM | > 60 µM | –
9 | Cc1[nH]nc2c1C(c1ccc(Br)cc1)C(C#N)=C(N)O2 (stereo not drawn) [Compound 5m, 6-Amino-4-(4-bromophenyl)-3-methyl-2,4-dihydropyrano[2,3-c]pyrazole-5-carbonitrile] | > 100 µM | 11.4 ± 2.27 µM | 3.77 ± 2 µM | > 100 µM | 33.2 ± 7.36 µM | 2.64 µM
10 | COc1cccc(C2C(C#N)=C(N)Oc3n[nH]c(C)c32)c1 (stereo not drawn) [Compound 5c, 6-Amino-4-(3-methoxyphenyl)-3-methyl-2,4-dihydropyrano[2,3-c]pyrazole-5-carbonitrile] | > 100 µM | 12.9 ± 0.86 µM | 7.2 ± 0.7 µM | > 100 µM | 18.1 ± 5.36 µM | 5.04 µM
11 | Cc1ccccc1C1C(C#N)=C(N)Oc2[nH]nc(C)c21 (stereo not drawn) [Compound 5e, 6-Amino-3-methyl-4-(2-methylphenyl)-2,4-dihydropyrano[2,3-c]pyrazole-5-carbonitrile] | > 100 µM | 34.3 ± 3.84 µM | > 30 µM | > 100 µM | 60 ± 0.29 µM | –
12 | Cc1n[nH]c2c1C(c1ccco1)C(C#N)=C(N)O2 (stereo not drawn) [Compound 5q, 6-Amino-4-(furan-2-yl)-3-methyl-2,4-dihydropyrano[2,3-c]pyrazole-5-carbonitrile] | > 100 µM | 17.5 ± 2.45 µM | 14.8 ± 4.8 µM | > 100 µM | 22.5 ± 7.78 µM | 10.4 µM
13 | Cc1n[nH]c2c1C(c1ccc(F)cc1)C(C#N)=C(N)O2 (stereo not drawn) [Compound 5h, 6-Amino-4-(4-fluorophenyl)-3-methyl-2,4-dihydropyrano[2,3-c]pyrazole-5-carbonitrile] | > 100 µM | 11.3 ± 1.15 µM | 17.9 ± 1.5 µM | > 100 µM | 37 ± 4.32 µM | 12.5 µM
14 | COc1ccc(C2C(C#N)=C(N)Oc3n[nH]c(C)c32)cc1 (stereo not drawn) [Compound 5d, 6-Amino-4-(4-methoxyphenyl)-3-methyl-2,4-dihydropyrano[2,3-c]pyrazole-5-carbonitrile] | > 100 µM | 35.4 ± 2.57 µM | 6.6 ± 1.7 µM | > 100 µM | 19.9 ± 4.89 µM | 4.63 µM
15 | Cc1n[nH]c2c1C(c1ccccc1Br)C(C#N)=C(N)O2 (stereo not drawn) [Compound 5l, 6-Amino-4-(2-bromophenyl)-3-methyl-2,4-dihydropyrano[2,3-c]pyrazole-5-carbonitrile] | > 100 µM | 26.7 ± 1.95 µM | > 30 µM | > 100 µM | 38.6 ± 7.16 µM | –
16 | Cc1[nH]nc2c1C(c1ccccc1[N+](=O)[O-])C(C#N)=C(N)O2 (stereo not drawn) [Compound 5n, 6-Amino-3-methyl-4-(2-nitrophenyl)-2,4-dihydropyrano[2,3-c]pyrazole-5-carbonitrile] | > 100 µM | 15.8 ± 5.23 µM | 3.9 µM and 3.89 µM | > 100 µM | 19.9 ± 4.89 µM | 2.72 µM
17 | Cc1[nH]nc2c1C(c1cccc([N+](=O)[O-])c1)C(C#N)=C(N)O2 (stereo not drawn) [Compound 5o, 6-Amino-3-methyl-4-(3-nitrophenyl)-2,4-dihydropyrano[2,3-c]pyrazole-5-carbonitrile] | > 100 µM | 40.8 ± 2.23 µM | 7.2 ± 1.6 µM | > 100 µM | 30.8 ± 4.99 µM | 5.04 µM
